# According to US8314140B2, “4-hydroxythiobenzamide derivatives of drugs” (Antibe Therapeutics Inc., priority 2006, dated 2012):
# Molecular target: T1, COX-1 (Rattus norvegicus, UniProt Q63921)
# T1 construct: whole blood thromboxane synthesis, which occurs via COX-1; from tissue; host or cells: rat whole blood, ex vivo after oral dosing
# T1 sequence (Q63921 27-602): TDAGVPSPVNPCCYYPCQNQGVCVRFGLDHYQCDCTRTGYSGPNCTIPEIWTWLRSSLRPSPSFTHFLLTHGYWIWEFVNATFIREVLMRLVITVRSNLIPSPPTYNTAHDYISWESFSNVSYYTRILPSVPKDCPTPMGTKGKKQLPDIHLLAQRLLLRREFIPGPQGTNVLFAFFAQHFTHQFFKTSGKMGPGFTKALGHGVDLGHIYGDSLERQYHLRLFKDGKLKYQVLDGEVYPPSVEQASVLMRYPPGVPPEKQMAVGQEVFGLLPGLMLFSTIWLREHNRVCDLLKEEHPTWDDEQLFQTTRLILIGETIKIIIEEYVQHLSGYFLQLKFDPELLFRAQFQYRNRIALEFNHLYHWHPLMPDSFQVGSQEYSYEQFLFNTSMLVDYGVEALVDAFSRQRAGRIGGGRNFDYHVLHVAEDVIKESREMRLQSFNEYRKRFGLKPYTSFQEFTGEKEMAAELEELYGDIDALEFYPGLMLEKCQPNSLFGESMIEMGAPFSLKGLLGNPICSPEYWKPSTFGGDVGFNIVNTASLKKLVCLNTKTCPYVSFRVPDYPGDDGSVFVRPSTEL
# Assay: Whole blood thromboxane B2 synthesis in treated rats
# Type: in vivo
# Conditions: same rats as FIG. 12/13
# Experimental: Inhibition of COX-1 was also measured using the same rats. […] The samples were then centrifuged for 3 min at 9,000 g and the supernatant was frozen at −80° C. for subsequent measurement of thromboxane B2 concentrations using a specific ELISA.
# Inhibition of COX-1 was also measured using the same rats, using the same method as described for FIG. 11.
smiles,measurement,value
NC(=S)c1ccc(O)cc1 [4-hydroxythiobenzamide],COX-1 activity (whole blood thromboxane synthesis),did not significantly affect COX-1 activity
